Values after ≈ are worked out from the molar mass of the structure shown.

The target in experiment [1] is T1, Human sputum elastase (HSE) / Human Leukocyte Elastase (HLE) (Homo sapiens, UniProt P08246).
T1 construct: Human sputum elastase (HSE ) (Elasten Products Co., Pacific, Mo.); purchased Elasten Products Co., Pacific, Mo; host or cells: human sputum
T1 sequence (P08246 30-267): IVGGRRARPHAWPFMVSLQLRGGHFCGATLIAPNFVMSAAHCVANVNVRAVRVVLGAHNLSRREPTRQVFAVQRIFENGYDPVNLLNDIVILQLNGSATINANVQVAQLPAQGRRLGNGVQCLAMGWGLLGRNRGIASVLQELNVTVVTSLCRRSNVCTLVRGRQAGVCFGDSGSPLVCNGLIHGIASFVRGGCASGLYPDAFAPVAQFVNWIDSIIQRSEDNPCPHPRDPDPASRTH
Description: Elastase Inhibition--In Vitro Method (hydrolysis of MeO-Suc-Ala-Ala-Pro-Val-pNA, microtiter format). The note with it: for % inhib. (5 ug/mL) 0% HSA / % inhib. (5 ug/mL) 0.5% HSA: 5 ug/mL compound; for % inhib. (5 ug/mL) 0.5% HSA: 0.5% HSA added; for IC50: Table I, 0.5 mM substrate, 15 minutes pre-incubation. Type of experiment: biochemical.

The target in experiment [2] is T2, human neutrophil elastase (HNE) (Homo sapiens, UniProt P08246).
T2 construct: purified preparations of human neutrophil elastase (HNE); purchased Elastin Products Co., Pacific, MO
T2 sequence (P08246 30-247 limits assumed): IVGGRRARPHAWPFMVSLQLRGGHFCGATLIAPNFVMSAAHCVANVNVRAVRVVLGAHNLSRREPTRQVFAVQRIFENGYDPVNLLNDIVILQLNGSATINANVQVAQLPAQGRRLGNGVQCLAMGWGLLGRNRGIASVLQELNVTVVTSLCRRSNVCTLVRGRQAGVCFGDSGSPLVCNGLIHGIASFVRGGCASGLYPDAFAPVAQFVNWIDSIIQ
In words: Elastase Inhibition--Animal Model (acute hamster hemorrhage model, HNE instilled i.t.). Type of experiment: in vivo, Syrian Golden Hamsters. The following applies: compound 20 ug i.t. three to five minutes before 50 μg HNE i.t., lung lavage hemorrhage at 18 hours. On the procedure: When instilled into the lungs of hamsters, purified preparations of human neutrophil elastase (HNE) will produce an emphysema like state. Acute challenge (18 hours) with 50 μg of HNE results in pulmonary hemorrhage which can be readily quantitated by measuring total RBC's (red blood count) and hemogloblin concentration of lung lavage samples.
HNE (obtained from Elastin Products Co., Pacific, MO) was diluted to 250 μg/mL in 0.9% sterile saline. Syrian Golden Hamsters, males, weighing approximately 90-130 grams, were obtained from Charles River Laboratories. The experiments described below are conducted using at least three animals per group.
Anesthesia required for the intratracheal administration of compounds and elastase was induced by the i.p. injection of Ketamine hydrochloride, 10 mg/100 gram body weight plus Xylazine, 1 mg/100 gram body weight.
Hamsters were anesthetized as described above and the trachea were surgically exposed. Test compounds were administered via 27g needle inserted directly into the trachea in 0.1 mL volume followed by 0.1 mL saline push. […]
Samples were concentrated by centrifugation (1500 rpm, 10 minutes) and brought up to 1.0 mL in saline. Homoglobin concentration was determined spectrophotometrically (540 nm) by the cyanmethemoglobin method using 200 μL sample to 2.5 mL cranmethoglobin reagent (Data Medical Associates, Arlington, Tx.).

Regarding `COc1ccc(CCN(CC(=O)NC(C(=O)C(F)(F)F)C(C)C)C(=O)[C@@H](NC(=O)OCc2ccccc2)C(C)C)cc1OC` (some centres unmarked) [3,4-Dimethoxyphenethyl; CBZ], in experiment [1], the “% inhib. (5 ug/mL) 0% HSA” value was 95.1%, the “% inhib. (5 ug/mL) 0.5% HSA” value was 87.8% and the IC50 was 0.432 µg/mL (≈ 0.693 µM).

`CC(C)C(NC(=O)CN(C(=O)[C@@H](NC(=O)OCc1ccccc1)C(C)C)C1CCCC1)C(=O)C(F)(F)F` (some centres unmarked) [Cyclopentyl; CBZ]: in experiment [1], the “% inhib. (5 ug/mL) 0% HSA” value amounted to 100%, the “% inhib. (5 ug/mL) 0.5% HSA” value worked out at 99.4% and the IC50 is 0.082 µg/mL (≈ 0.155 µM).

In the case of `CC(C)C(NC(=O)CN(C(=O)[C@@H](NC(=O)c1ccc(C(=O)NS(=O)(=O)c2ccc(Cl)cc2)cc1)C(C)C)C1CC2CCC1C2)C(=O)C(F)(F)F` (stereo partly drawn) [[[4-(4-Chlorophenyl)sulfonylaminocarbonyl]phenyl-1-oxomethyl]-L-Valyl-N-(exo-bicyclo[2,2,1]hept-2-yl)-glycyl-N-[3-(1,1,1-trifluoro-4-methyl-2-oxypentyl)] amide.], in experiment [2], the “% inhib. (20 ug, i.t.)” value is given as 93.8%. Besides, in experiment [1], the “% inhib. (5 ug/mL) 0% HSA” value was determined as 99.8%, the “% inhib. (5 ug/mL) 0.5% HSA” value is 99.5% and the IC50 is 0.045 µg/mL (≈ 0.0607 µM).

Turning to `COc1ccc(CCN(CC(=O)NC(C(=O)C(F)(F)F)C(C)C)C(=O)[C@@H](NC(=O)c2ccc(C(=O)NS(=O)(=O)c3ccc(Cl)cc3)cc2)C(C)C)cc1OC` (stereo partly drawn) [[[4-(4-Chlorophenylsulfonylaminocarbonyl]phenyl-1-oxomethyl]-L-Valyl-N-2-(3 , 4-dimethoxy)phenethyl] glycyl-N-[3-(1,1,1-trifluoro-4-methyl-2-oxypentyl)] amide], the “% inhib. (20 ug, i.t.)” value in experiment [2] worked out at 90.2%. In experiment [1], the “% inhib. (5 ug/mL) 0% HSA” value came to 98.8%, the “% inhib. (5 ug/mL) 0.5% HSA” value is given as 96.3% and the IC50 was 0.0838 µg/mL (≈ 0.103 µM).

As usually defined, the IC50 is the concentration needed to halve the response being measured. A low value points to inhibition by little substance.

The values above are taken from US5221665A, “N-substituted amides” (Boehringer Ingelheim Pharmaceuticals, Inc., priority 1991, dated 1993).
